PMC9782819, “Ramosin: The First Antibacterial Peptide Identified on Bolitoglossa ramosi Colombian Salamander” (Pharmaceutics, 2022)
Where no end group is shown, it is not given here.

Legend:
[1] = test system: Escherichia coli ATCC 25,922; assay type: cell-based; settings: ATCC 25, 18 h
Method: (§1) To determine the minimum inhibitory concentrations (MICs) of the candidate peptides, the 96-well plate microdilution assay, described by the Clinical and Laboratory Standards Institute (CLSI) and the European Committee on Antimicrobial Susceptibility Testing (EUCAST), was performed. For testing the antimicrobial activity of the candidate peptides, Gram-positive and Gram-negative bacterial strains were used. […] For this assay, 3 to 5 colonies were taken from the agar and grown to exponential phase in tryptic soy broth (TSB) liquid medium defined as a 0.5 McFarland value measured with a densichek plus (Biomérieux). […] The plates were incubated for 18 h at 37 °C, and subsequently the absorbance was read in a MultiSkan GO (Thermofisher, Waltham, MA, USA) at 600 nm. […] To determine if the effect of the peptides was bactericidal or bacteriostatic, once the absorbance reading was completed, 10 μL were taken from each well where bacterial growth inhibition was observed and they were sown in TSA agars and incubated at 37 °C for 24 h. […]
(§2) All bacterial strains used were ATCC reference strains. The antibacterial activity of Ramosin was evaluated using the Wiegand et al. protocol. […]
(§3) In addition to absorbance measurement, a bacterial growth test was performed. […]

[2] = test system: Staphylococcus aureus ATCC 29,213; experiment: Growth inhibition kinetics (bactericidal or bacteriostatic); assay type: cell-based; settings: 19 h, peptide 70 μM
Method: as §1, §2, §3

[3] = test system: Escherichia coli ATCC 25,922; experiment: as above; assay type: cell-based; settings: 19 h, peptide 70 μM
Method: (§4) To determine the minimum inhibitory concentrations (MICs) of the candidate peptides, the 96-well plate microdilution assay, described by the Clinical and Laboratory Standards Institute (CLSI) and the European Committee on Antimicrobial Susceptibility Testing (EUCAST), was performed. For testing the antimicrobial activity of the candidate peptides, Gram-positive and Gram-negative bacterial strains were used. The strains used were Staphylococcus aureus ATCC 29,213 (S. aureus), Enterococcus faecalis ATCC 29,212 (E. faecalis), Bacillus cereus ATCC 6464 (B. cereus), and Micrococcus luteus ATCC 9341 (M. luteus) as Gram-positive, and Escherichia coli ATCC 25,922 (E. coli), Pseudomonas aeruginosa ATCC 27,853 (P. aeruginosa), and Salmonella typhimurium ATCC 14,028 (S. typhimurium) as Gram-negative. The bacteria were cultivated in tryptic soy agar (TSA) until the time of carrying out the antimicrobial activity assay. For this assay, 3 to 5 colonies were taken from the agar and grown to exponential phase in tryptic soy broth (TSB) liquid medium defined as a 0.5 McFarland value measured with a densichek plus (Biomérieux). Bacteria were diluted to a final concentration of 5 × 10^5 CFU/mL. […] The plates were incubated for 18 h at 37 °C, and subsequently the absorbance was read in a MultiSkan GO (Thermofisher, Waltham, MA, USA) at 600 nm. […] To determine if the effect of the peptides was bactericidal or bacteriostatic, once the absorbance reading was completed, 10 μL were taken from each well where bacterial growth inhibition was observed and they were sown in TSA agars and incubated at 37 °C for 24 h. […]
(§5) All bacterial strains used were ATCC reference strains. The antibacterial activity of Ramosin was evaluated using the Wiegand et al. protocol. […] Two types of tests were carried out: the endpoint, in which the absorbance of the plates was read after 19 h of treatment, and kinetics, in which plate readings were made every hour to determine whether the effect of the peptides was bactericidal or bacteriostatic.
as §3

[4] = test system: Pseudomonas aeruginosa ATCC 27,853; experiment: as above; assay type: cell-based; settings: 19 h, peptide 70 μM
Method: as §4, §5, §3

[5] = test system: Bacillus cereus ATCC 6464; experiment: as above; assay type: cell-based; settings: 19 h, peptide 70 μM
Method: as §4, §5, §3

[6] = test system: Staphylococcus aureus ATCC 29,213; experiment: Broth microdilution endpoint assay / MIC; assay type: cell-based; settings: 19 h treatment, absorbance 600 nm, p > 0.005
Method: as §1, §2, §3

Method for human red blood cells: The hemolytic activity of the peptide was determined as previously reported [45]. In brief, its hemolytic activity of the peptide was evaluated by determining the amount of the released hemoglobin from a 4% v/v suspension of fresh human red blood cells (RBCs). In 96-well plates, 65 μL of the RBCs suspension and 65 μL of each peptide dilution were mixed. […] Plates were incubated at 37 °C for two hours, then centrifuged at 2500× g for 5 min. A total of 80 μL of supernatant was recovered and transferred to another 96-well plate, and absorbance at 540 nm was measured in a MultiSkan GO (Thermofisher, Waltham, MA, USA). The percentage of hemolysis was calculated according to the following formula [45]: (1) %Hemolysis=OD450 in the peptide suspension−OD450 negative control in PBS/OD450 of positive control−OD450 negative control in PBS×100

Substance	non-hemolytic concentration relative to MIC (human red blood cells)	MIC for E. coli [1]	effect on S. aureus at 70 μM [2]	effect on E. coli at 70 μM [3]	effect on P. aeruginosa at 70 μM [4]	effect on B. cereus at 70 μM [5]	effect on viability of S. aureus, endpoint assay (peptide control) [6]
GWFSLVRKVVGGVGSL-NH2 [Ramosin]	up to four times its MIC	17.5 µM	–	–	–	–	–
Buforin II	–	–	failed to inhibit the growth	bactericidal effect	bactericidal effect	failed to inhibit the growth	did not have a statistically significant effect
